Data from US20170298055A1, “sGC STIMULATORS” (IRONWOOD PHARMACEUTICALS, INC., priority 2014, published 2017).

Target: T1, soluble guanylate cyclase (sGC) (Homo sapiens, UniProt Q02108+Q02153)
T1 construct: endogenously expressing soluble guanylate cyclase (sGC); endogenous in cells; host or cells: HEK293
T1 sequence (Q02153 1-619): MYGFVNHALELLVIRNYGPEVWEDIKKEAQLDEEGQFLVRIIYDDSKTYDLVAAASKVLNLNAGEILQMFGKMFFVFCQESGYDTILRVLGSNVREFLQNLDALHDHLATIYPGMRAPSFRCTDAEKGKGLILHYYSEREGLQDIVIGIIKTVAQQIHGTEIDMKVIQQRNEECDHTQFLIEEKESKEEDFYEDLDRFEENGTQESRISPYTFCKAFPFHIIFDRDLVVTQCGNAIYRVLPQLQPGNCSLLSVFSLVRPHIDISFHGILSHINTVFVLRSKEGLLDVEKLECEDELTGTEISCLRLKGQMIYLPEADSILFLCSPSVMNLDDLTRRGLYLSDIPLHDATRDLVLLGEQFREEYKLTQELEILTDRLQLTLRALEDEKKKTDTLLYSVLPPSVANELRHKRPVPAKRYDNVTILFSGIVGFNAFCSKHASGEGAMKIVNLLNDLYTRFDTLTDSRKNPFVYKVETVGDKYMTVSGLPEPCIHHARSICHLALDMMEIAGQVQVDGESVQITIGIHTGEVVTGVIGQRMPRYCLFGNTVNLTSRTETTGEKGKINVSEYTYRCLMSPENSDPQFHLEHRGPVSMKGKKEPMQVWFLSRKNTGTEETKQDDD
T1 sequence (Q02108 1-690): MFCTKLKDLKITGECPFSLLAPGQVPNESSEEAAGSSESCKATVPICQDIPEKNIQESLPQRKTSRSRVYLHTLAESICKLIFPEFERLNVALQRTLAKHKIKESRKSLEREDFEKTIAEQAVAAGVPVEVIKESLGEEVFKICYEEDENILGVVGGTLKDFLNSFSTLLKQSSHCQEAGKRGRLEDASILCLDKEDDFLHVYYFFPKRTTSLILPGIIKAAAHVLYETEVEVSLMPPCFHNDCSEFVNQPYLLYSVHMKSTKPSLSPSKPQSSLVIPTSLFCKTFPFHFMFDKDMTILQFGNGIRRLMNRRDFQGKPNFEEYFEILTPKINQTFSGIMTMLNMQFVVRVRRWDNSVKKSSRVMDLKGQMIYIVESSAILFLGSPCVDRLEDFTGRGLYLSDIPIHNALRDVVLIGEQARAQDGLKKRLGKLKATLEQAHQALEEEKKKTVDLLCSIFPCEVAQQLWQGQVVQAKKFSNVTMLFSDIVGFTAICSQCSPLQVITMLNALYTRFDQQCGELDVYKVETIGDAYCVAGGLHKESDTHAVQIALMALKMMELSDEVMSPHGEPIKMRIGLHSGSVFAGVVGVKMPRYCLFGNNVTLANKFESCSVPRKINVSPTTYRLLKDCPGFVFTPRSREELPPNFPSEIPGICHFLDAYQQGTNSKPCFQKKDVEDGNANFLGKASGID
Assay: sGC-HEK-cGMP assay, LC/MS detection, updated conditions with DETA-NONOate (Example 2B)
Assay type: cell-based
Settings: read-out: sGC_HEK_LCMS EC50/IC50 Abs (Norm) (nM) Binned
Experimental: Human embryonic kidney cells (HEK293), endogenously expressing soluble guanylate cyclase (sGC), were used to evaluate the activity of test compounds. Compounds stimulating the sGC enzyme should cause an increase in the intracellular concentration of cGMP. HEK 293 cells were seeded in Dulbecco's Modification of Eagle's Medium supplemented with fetal bovine serum (10% final) and penicillin (100 U/mL)/streptomycin (100 μg/mL) in a 50 μL volume at a density of 1.5×10^4 cells/well in a poly-D-lysine coated 384 well flat bottom plate. Cells were incubated overnight at 37° C. in a humidified chamber with 5% CO2. Medium was aspirated and cells were washed with 1× Hank's Buffered Saline Salt Solution (50 μL). Cells were then incubated for 15 minutes at 37° C. with 50 μL of a 0.5 mM 3-isobutyl-1-methylxanthine (IBMX) solution. Test article and Diethylenetriamine NONOate (DETA-NONOate) solutions (x μM concentration for test article solution and 10 μM concentration for DETA-NONOate solution; wherein x is one of the following concentrations);
were then added to the assay mixture and the resulting mixture incubated at 37° C. for 20 minutes. […]
cGMP concentrations were determined from each sample using the LCMS conditions below (Table 2B) and calculated standard curve. […]

EC50 | Compound
100 to 1000 nM | OCCOc1nc(-c2cc(-c3ccon3)n(Cc3ccccc3F)n2)ncc1F [Compound I-1]
> 1000 nM | CN(C)CCOc1nc(-c2cc(-c3ccon3)n(Cc3ccccc3F)n2)ncc1F [Compound I-2]
